Measurements as given in PMC7472781, “Inherited and Acquired Determinants of Hepatic CYP3A Activity in Humans” (Frontiers in Genetics, 2020).
Marks after values point to notes of the source that are not given here.

Columns and labels:
CYP3A [1] = test: Within- and between-subject variance and genetic component (Kalow) of the 4 CYP3A biomarkers, three occasions
Protocol: (§1) Predefined primary endpoint was midazolam AUC. All concentrations and pharmacokinetic parameters were determined on three independent occasions to compare intra- versus interindividual variation. […] In structural equation modeling of heritability and in the other multifactorial analyses the individual means from the measurements or parameters obtained on the three occasions were used. Using structural equation analysis, variation was separated into additive genetic (A), common environmental (C), and unique environmental (E) effects. The heritability is the proportion of the variance resulting from the genetic effect (A). In order to investigate the genetic, common environmental, and unique environmental effects of the different traits taken into account, the possible correlation between traits were fitted in multivariate ACE, AE, and CE biometrical models using the mcglm package for multivariate regression analysis in R. As an exploratory analysis, we computed the correlation between MZ and DZ twins based on an unstructured (equal mean and variance for MZ and DZ twins) model. In all models, the mean structure for each trait was specified as a linear function of the covariates age and sex.

CYP3A [2] = test: Multifactorial analysis of genetic and environmental effects on the CYP3A probe drugs and biomarkers; details: in vivo
Protocol: DNA was isolated from whole venous blood by automated solid phase extraction with the EZ1^TM DNA Blood 350 μl Kit using the Bio-robot EZ1^TM (both Qiagen, Hilden, Germany). The CYP3A4^∗1b and ^∗22 alleles as well as the CYP3A5^∗1/^∗3 polymorphism were genotyped by DNA sequencing using fluorescence-labeled dideoxynucleotides and detection via Gene Mapper v3.7 Software® (Applied Biosystems®, Foster City, United States). Zygosity was assessed by analyzing variants in 23 polymorphic genes. Monozygosity was concluded when there were no differences regarding the polymorphisms in both siblings of one twin pair.
as §1

CYP3A [3] = test: Twin correlations and structural equation modeling (ACE, AE, CE) of heritability of the CYP3A biomarkers; details: in vivo
Protocol: as §1

CYP3A [4] = details: in vivo
Protocol: Cholesterol and 4ß-OH cholesterol were measured in the baseline blood samples before drug administration. All samples were centrifuged for 10 min (4000 rpm) at 4°C and the plasma was stored at −20°C.
Calibration samples for cholesterol were prepared in isooctane with 10% 2-propanol in the concentration range from 1 to 30 μg. Calibration samples for 4ß-hydroxycholesterol were prepared in isooctane with 0.8% 2-propanol from 5 to 100 ng. […] Calibration samples were worked up as the samples, and analyzed together with the unknown samples. […] The concentration in unknown samples was obtained from the regression line.

## C[C@]12CCC(=O)C=C1[C@@H](O)C[C@@H]1[C@@H]2[C@@H](O)C[C@@]2(C)[C@H]1CC[C@]2(O)C(=O)CO [6ß-OH-cortisol, 6-ß-hydroxycortisol]
CYP3A [1]; from intra- and inter-individual variation, independent of twin status, AUC, plasma concentration or 24-h urine Ae
  Genetic component: 0.457
CYP3A [1]; human, in vivo
  Variance between subjects (Varb) of Ae (24-h-urine): 8141 μg/24 h
CYP3A [1]; three occasions
  Variance within subjects (Varw) of Ae (24-h-urine): 4247 μg/24 h
CYP3A [2]
  Coefficient, CYP3A4*22: −127.40
  Coefficient, CYP3A5*3: 0.70
  Coefficient, age: 0.94
  Coefficient, lean body weight: −1.35
  Coefficient, sex: −9.28
  Coefficient, smoking status: −8.66
CYP3A [2]; po
  Coefficient, oral contraceptives: 3.37
CYP3A [3]
  Variation due to additive genetic (inherited) effects: 31%
  rdz (correlation between DZ twins): 0.50 (0.13)*
  rmz (correlation between MZ twins): 0.68 (0.06)*
CYP3A [4]
  Ae (24-h-urine), mean: 222 μg/24 h
